Experimental data from patent US10231972B2, “Combination of a 6-oxo-1,6-dihydro-pyridazine derivative having anti-cancer activity with a quinazoline derivative” (MERCK PATENT GMBH, priority 2014, dated 2019).

Key:
Format in all cases: in vivo
human U87-MG tumor cells = assay: Human U87-MG xenograft model; settings: oral daily; for median tumor volume (TV) change: day 12, female CD-1 nude mice, s.c. U87-MG, 100 mg/kg pyridazinone, 30 mg/kg quinazoline, alone or combined; for median time until tumor progression: progression = TV change >73%, treatment up to 65 days, CD-1 nude mice
Method: Background: The human U87-MG glioblastoma model is an autocrine HGF/c-Met expressing tumor model with an activated c-Met pathway. This model carries a mutation of PTEN, a negative regulator of the PI3K signaling.
(§1) Method: Female CD-1 nude mice (6-8 weeks old) where subcutaneously injected with human U87-MG tumor cells and were divided into treatment groups (8 animals per group) after the tumors were established. Respective groups were administered orally with the 3-(1-{3-[5-(1-Methyl-piperidin-4-ylmethoxy)-pyrimidin-2-yl]-benzyl}-6-oxo-1,6-dihydro-pyridazin-3-yl)-benzonitrile hydrochloride hydrate (100 mg/kg) or 4-[(S)-2-azetidin-1-yl-1-(4-chloro-3-trifluoromethyl-phenyl)-ethylamino]-quinazoline-8-carboxylic acid amide (30 mg/kg) daily in monotherapy or in combination until tumors progressed or until treatment period of 65 days. At day 12, the day of vehicle group termination, median tumor volume (TV) change in % were calculated. Statistical analysis has been done with two way-RM ANOVA. Median time until tumor progression under treatment has been calculated at the end of the study. Tumor progression is defined as tumor volume change >73%.

human H596 tumor cells = assay: Human HGF dependent H596 lung xenograft model; settings: oral daily; for median tumor volume change: day 14, female humanized HGF SCID mice, s.c. H596, 100 mg/kg pyridazinone, 30 mg/kg (from day 12 20 mg/kg) quinazoline, alone or combined; for median time until tumor progression: progression = TV change >73%, treatment up to 66 days, humanized HGF SCID mice
From the text: Background: The human H596 lung model is c-Met expressing paracrine HGF/c-Met tumor model which a juxta-membran (JM) domain mutation of c-Met which lead to prolonged c-Met activation after HGF ligand binding. The model expresses […] with an activated c-Met pathway. This model carries a PI3KCA mutation (literature data).
Method: Female humanized HGF SCID mice (8-10 weeks old) where subcutaneously injected with human H596 tumor cells and were divided into treatment groups (8 animals per group) after the tumors were established.
Respective groups were administered orally with the 3-(1-{3-[5-(1-Methyl-piperidin-4-ylmethoxy)-pyrimidin-2-yl]-benzyl}-6-oxo-1,6-dihydro-pyridazin-3-yl)-benzonitrile hydrochloride hydrate (100 mg/kg) or 4-[(S)-2-azetidin-1-yl-1-(4-chloro-3-trifluoromethyl-phenyl)-ethylamino]-quinazoline-8-carboxylic acid amide (30 mg/kg, from day 12 20 mg/kg) daily in monotherapy or in combination until tumors progressed or until treatment period of 66 days. At day 14, the day when all animals in the vehicle group were still present, median tumor volume change in % were calculated. Statistical analysis has been done with two way-RM ANOVA. Median time until tumor progression under treatment has been calculated at the end of the study. Tumor progression is defined as tumor volume change >73%.

[1] = system: human NCI-H441 tumor cells; assay: Human NCI-H441 lung xenograft model; settings: oral daily; for median tumor volume change: day 21, female CD-1 nude mice, s.c. NCI-H441, 100 mg/kg pyridazinone, 30 mg/kg quinazoline, alone or combined; for median time until tumor progression: progression = TV change >73%, treatment up to 78 days, CD-1 nude mice
Method: Background: The human NCI-H441 lung model is an c-Met overexpressing tumor model with an activated c-Met pathway. This model carries a kras mutation. Literature data have shown phosphorylation of S6K is present in this tumor model.
as §1, with “week” for “weeks”, “NCI-H441” for “U87-MG”, “78” for “65”, “21,” for “12,”, “volume” for “volume (TV)”

SMILES	median tumor volume (TV) change (human U87-MG tumor cells) [%]	median time until tumor progression (human U87-MG tumor cells) [days]	median tumor volume change (human H596 tumor cells) [%]	median time until tumor progression (human H596 tumor cells) [days]	median tumor volume change [1] [%]	median time until tumor progression [1] [days]
CN1CCC(COc2cnc(-c3cccc(Cn4nc(-c5cccc(C#N)c5)ccc4=O)c3)nc2)CC1.Cl.O [3-(1-{3-[5-(1-Methyl-piperidin-4-ylmethoxy)-pyrimidin-2-yl]-benzyl}-6-oxo-1,6-dihydro-pyridazin-3-yl)-benzonitrile hydrochloride hydrate]	−71	58	35	24	−1	67
NC(=O)c1cccc2c(N[C@H](CN3CCC3)c3ccc(Cl)c(C(F)(F)F)c3)ncnc12 [4-[(S)-2-Azetidin-1-yl-1-(4-chloro-3-trifluoromethyl-phenyl)-ethylamino]-quinazoline-8-carboxylic acid amide]	51	14	36	24	138	14
